Assay results from patent publication US5358712A, “Radiopharmaceutical agents for the detection of Alzheimer's disease” (Regents of the University of Minnesota, priority 1993, dated 1994).
Entries after “also recorded” stand apart in the source; their conditions may differ.

Key:
vesamicol receptor [1] = assay: Blocking experiments: inhibition of radiotracer accumulation in the rat by coadministered compound; type: in vivo, rat (male Wistar); conditions: rat, 60 min; for reduction of accumulation of radioactivity in the brain / reduction of accumulation of radioactivity in the heart: coadministered blocker; for Brain: Blood Ratio / Heart: Blood Ratio / radioactivity in blood / radioactivity in brain / radioactivity in heart / radioactivity in kidney / radioactivity in liver / radioactivity in lung / radioactivity in muscle / radioactivity in spleen: iv
Procedure, shortened: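 Male Wistar rats (n=3/group) got iv radiotracer, alone or coadministered with blocker (e.g. (+)/(−)-HBrPP·HCl 1.3 μmol/kg, vesamicol·HCl 1.1 μmol/kg, or 0.31–0.53 mg/kg in other series). Blood and tissues taken 60 min post-injection to assess radiotracer accumulation.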

rat brain = assay: Ex vivo autoradiographic studies, regional distribution in the rodent brain; set-up: species or system rat (male Wistar); conditions: 3 hours
Experimental: Four male Wistar rats weighing 300-330 g. were anesthetized with diethyl ether. While under anesthesia two animals each received an intravenous dose of 300 μCi of (-)-4-[^125 I]HIPP in […] of 50% aqueous ethanol. The second pair of animals received an iv dose of (+)-4-[^125I]HIPP (170 μCi) in the same solvent. The animals were sacrificed by decapitation three hours following radiotracer administration. The brains were harvested, embedded in Tissue Tek OCT embedding medium and frozen to -38° C. Twenty-micron thick brain sections were obtained at -15° C. using a Reicheft HistoSTAT cryostat microtome. The sections were dried and opposed to Kodak NMC film for autoradiography accompanied by external standards (^125 I-labelled microscales from Amersham). Images were subsequently digitized based on the linear scale obtained from these standards.

[2] = Tissue distribution (biodistribution) of radioiodinated compound in the rat; conditions: for injected dose found in the brain: 5 minutes post injection; for concentration of radioactivity in the brain over time: duration of the study (3 hours); for Brain: Blood Ratio / Heart: Blood Ratio / radioactivity in blood / radioactivity in brain / radioactivity in heart / radioactivity in kidney / radioactivity in liver / radioactivity in lung / radioactivity in muscle / radioactivity in spleen: iv; for level of radioactivity in the blood: throughout the study; for brain retention (in words): rodent (and monkey)
Experimental: Four groups of male Wistar rats (with four animals per group) weighing 200-350 g were used in these experiments. Each animal received, while under ether anesthesia, an intravenous injection of the radiotracer (10-20 μCi) dissolved in 0.1 ml of 50% aqueous ethanol. At 5, 30, and 60 and 180 min. post-injection, blood was collected from the anesthetized animals by cardiac puncture, and the animal was immediately sacrificed by cardiectomy. The organs and tissues of interest were harvested, transferred to preweighed tubes and counted in a Beckman gamma counter. The tubes were subsequently reweighed to give the weight of the corresponding tissues. Preweighed tubes containing ^1 -ml samples of a 1:100 dilution of the injection dose were also counted and used as reference for calculating the tissue accumulation of radioactivity. The accumulation of radiotracer was expressed as a percentage of injected dose per gram of tissue.

[3] = system: vesicular acetylcholine storage; conditions: cited from earlier work; for vesamicol-like inhibitory activity (in words): Kaufman et al 1988
vesamicol receptor [4] = conditions: cited from earlier work
[5] = + (dl)-vesamicol HCl 0.3 (Table 3) or 0.31 mg/kg

SMILES: OC(Cc1ccc([125I])cc1)CN1CCC(c2ccccc2)CC1 (single isomer, unassigned; (+)) [(+)-4-[^125 l]HIPP] [2-Hydroxy-3-(4-iodophenyl)-1-(4-phenylpiperidyl)propane]
- reduction of accumulation of radioactivity in the brain (vesamicol receptor [1]; listed as (+)-[^125 I]5): 53%-58%
- reduction of accumulation of radioactivity in the heart (vesamicol receptor [1]; listed as (+)-[^125 I]5): 74% -76%
- Brain: Blood Ratio (vesamicol receptor [1]; + (+)-7 HCl 0.53 mg/kg): 3.9
- Heart: Blood Ratio (vesamicol receptor [1]; + (+)-7 HCl 0.53 mg/kg): 1.8
- radioactivity in blood (vesamicol receptor [1]; + (+)-7 HCl 0.53 mg/kg): 0.06 % dose/g of tissue
- radioactivity in brain (vesamicol receptor [1]; + (+)-7 HCl 0.53 mg/kg): 0.32 % dose/g of tissue
- radioactivity in heart (vesamicol receptor [1]; + (+)-7 HCl 0.53 mg/kg): 0.15 % dose/g of tissue
- radioactivity in kidney (vesamicol receptor [1]; + (+)-7 HCl 0.53 mg/kg): 0.47 % dose/g of tissue
- radioactivity in liver (vesamicol receptor [1]; + (+)-7 HCl 0.53 mg/kg): 1.13 % dose/g of tissue
- radioactivity in lung (vesamicol receptor [1]; + (+)-7 HCl 0.53 mg/kg): 1.29 % dose/g of tissue
- radioactivity in muscle (vesamicol receptor [1]; + (+)-7 HCl 0.53 mg/kg): 0.08 % dose/g of tissue
- radioactivity in spleen (vesamicol receptor [1]; + (+)-7 HCl 0.53 mg/kg): 0.71 % dose/g of tissue
- radioactivity in spleen (vesamicol receptor [1]; + (-)-7 HCl 0.53 mg/kg): 0.57 % dose/g of tissue
- Brain: Blood Ratio (vesamicol receptor [1]; + (-)-7 HCl 0.53 mg/kg): 4.5
- Heart: Blood Ratio (vesamicol receptor [1]; + (-)-7 HCl 0.53 mg/kg): 2.0
- radioactivity in blood (vesamicol receptor [1]; + (-)-7 HCl 0.53 mg/kg): 0.05 % dose/g of tissue
- radioactivity in brain (vesamicol receptor [1]; + (-)-7 HCl 0.53 mg/kg): 0.32 % dose/g of tissue
- radioactivity in heart (vesamicol receptor [1]; + (-)-7 HCl 0.53 mg/kg): 0.16 % dose/g of tissue
- radioactivity in kidney (vesamicol receptor [1]; + (-)-7 HCl 0.53 mg/kg): 0.54 % dose/g of tissue
- radioactivity in liver (vesamicol receptor [1]; + (-)-7 HCl 0.53 mg/kg): 0.90 % dose/g of tissue
- radioactivity in lung (vesamicol receptor [1]; + (-)-7 HCl 0.53 mg/kg): 1.51 % dose/g of tissue
- radioactivity in muscle (vesamicol receptor [1]; + (-)-7 HCl 0.53 mg/kg): 0.09 % dose/g of tissue
- Brain: Blood Ratio (vesamicol receptor [1]; [5]): 9.7
- Heart: Blood Ratio (vesamicol receptor [1]; [5]): 3.8
- radioactivity in blood (vesamicol receptor [1]; [5]): 0.04 % dose/g of tissue
- radioactivity in brain (vesamicol receptor [1]; [5]): 0.36 % dose/g of tissue
- radioactivity in heart (vesamicol receptor [1]; [5]): 0.15 % dose/g of tissue
- radioactivity in kidney (vesamicol receptor [1]; [5]): 0.46 % dose/g of tissue
- radioactivity in liver (vesamicol receptor [1]; [5]): 2.23 % dose/g of tissue
- radioactivity in lung (vesamicol receptor [1]; [5]): 1.11 % dose/g of tissue
- radioactivity in muscle (vesamicol receptor [1]; [5]): 0.08 % dose/g of tissue
- radioactivity in spleen (vesamicol receptor [1]; [5]): 0.68 % dose/g of tissue
- Brain: Blood Ratio (vesamicol receptor [1]; radiotracer only (control)): 28.7
- Heart: Blood Ratio (vesamicol receptor [1]; radiotracer only (control)): 39.8
- radioactivity in blood (vesamicol receptor [1]; radiotracer only (control)): 0.02 % dose/g of tissue
- radioactivity in brain (vesamicol receptor [1]; radiotracer only (control)): 0.76 % dose/g of tissue
- radioactivity in heart (vesamicol receptor [1]; radiotracer only (control)): 0.60 % dose/g of tissue
- radioactivity in kidney (vesamicol receptor [1]; radiotracer only (control)): 1.63 % dose/g of tissue
- radioactivity in liver (vesamicol receptor [1]; radiotracer only (control)): 1.38 % dose/g of tissue
- radioactivity in lung (vesamicol receptor [1]; radiotracer only (control)): 3.46 % dose/g of tissue
- radioactivity in muscle (vesamicol receptor [1]; radiotracer only (control)): 0.13 % dose/g of tissue
- radioactivity in spleen (vesamicol receptor [1]; radiotracer only (control)): 1.10 % dose/g of tissue
- radioactivity in cerebellar molecular layer relative to granular layer (rat brain): slightly higher concentration
- radioactivity in frontal cortex and caudate-putamen (rat brain): Moderate levels
- radioactivity in pineal gland and nuclei of fifth and seventh cranial nerves (rat brain): highest levels
- radioactivity in the white matter (rat brain): relatively low
- tissue distribution profile compared with (-)-[^125 I]5 ([2]; rat): similar
- injected dose found in the brain ([2]; rat, listed as (+)-[^125 I]5): 2.27 % of the injected dose
- injected dose found in the heart ([2]; rat, 5 minutes post-injection, listed as (+)-[^125 I]5): 1.23 % of the injected dose
- decrease of radioactivity in the heart ([2]; rat, between 5 and 30 minutes): 32%
- concentration of radioactivity in the brain over time ([2]; rat, listed as (+)-[^125 I]5): remained essentially constant
- Brain: Blood Ratio ([2]; rat, 5 min): 15.2
- Heart: Blood Ratio ([2]; rat, 5 min): 22.7
- Brain: Blood Ratio ([2]; rat, 30 min): 32.4
- Heart: Blood Ratio ([2]; rat, 30 min): 32.7
- Brain: Blood Ratio ([2]; rat, 60 min): 44.3
- Heart: Blood Ratio ([2]; rat, 60 min): 40.2
- Brain: Blood Ratio ([2]; rat, 180 min): 44.8
- Heart: Blood Ratio ([2]; rat, 180 min): 28.2
- level of radioactivity in the blood ([2]; rat): low
- brain retention (in words) [2]: comparable retention

SMILES: OC(Cc1ccc([125I])cc1)CN1CCC(c2ccccc2)CC1 (single isomer, unassigned; (-)) [(-)-4-[^125 l]HIPP] [2-Hydroxy-3-(4-iodophenyl)-1-(4-phenylpiperidyl)propane]
- reduction of accumulation of radioactivity in the brain (vesamicol receptor [1]; listed as (-)-[^125 I]5): 70%
- reduction of accumulation of radioactivity in the heart (vesamicol receptor [1]; listed as (-)-[^125 I]5): 84%
- Brain: Blood Ratio (vesamicol receptor [1]; + (+)-7 HCl 0.53 mg/kg): 5.6
- Heart: Blood Ratio (vesamicol receptor [1]; + (+)-7 HCl 0.53 mg/kg): 2.5
- radioactivity in liver (vesamicol receptor [1]; + (+)-7 HCl 0.53 mg/kg): 2.87 % dose/g of tissue
- Brain: Blood Ratio (vesamicol receptor [1]; + (-)-7 HCl 0.53 mg/kg): 7.1
- Heart: Blood Ratio (vesamicol receptor [1]; + (-)-7 HCl 0.53 mg/kg): 3.0
- radioactivity in liver (vesamicol receptor [1]; + (-)-7 HCl 0.53 mg/kg): 1.90 % dose/g of tissue
- Brain: Blood Ratio (vesamicol receptor [1]; [5]): 12.7
- Heart: Blood Ratio (vesamicol receptor [1]; [5]): 4.9
- Brain: Blood Ratio (vesamicol receptor [1]; radiotracer only (control)): 42.7
- Heart: Blood Ratio (vesamicol receptor [1]; radiotracer only (control)): 36.5
- radioactivity in cerebellar molecular layer relative to granular layer (rat brain): slightly higher concentration
- radioactivity in frontal cortex and caudate-putamen (rat brain): Moderate levels
- radioactivity in pineal gland and nuclei of fifth and seventh cranial nerves (rat brain): highest levels
- radioactivity in the white matter (rat brain): relatively low
- injected dose found in the brain ([2]; rat, listed as (-)-[^125 I]5): 1.94 % of the injected dose
- injected dose found in the heart ([2]; rat, 5 minutes post-injection, listed as (-)-[^125 I]5): 1.2 % of the injected dose
- reduction of injected dose in the heart ([2]; rat, 5 minutes to 3 hours): 50%
- injected dose found in the heart ([2]; rat, after 3 hours): 0.59 % of the injected dose
- concentration of radioactivity in the brain over time ([2]; rat, listed as (-)-[^125 I]5): remained essentially stable
- Brain: Blood Ratio ([2]; rat, 5 min): 12.3
- Heart: Blood Ratio ([2]; rat, 5 min): 16.4
- radioactivity in blood ([2]; rat, 5 min): 0.09 % dose/g
- radioactivity in brain ([2]; rat, 5 min): 1.03 % dose/g
- radioactivity in heart ([2]; rat, 5 min): 1.32 % dose/g
- radioactivity in kidney ([2]; rat, 5 min): 2.89 % dose/g
- radioactivity in liver ([2]; rat, 5 min): 1.33 % dose/g
- radioactivity in lung ([2]; rat, 5 min): 8.62 % dose/g
- radioactivity in muscle ([2]; rat, 5 min): 0.35 % dose/g
- radioactivity in spleen ([2]; rat, 5 min): 0.87 % dose/g
- Brain: Blood Ratio ([2]; rat, 30 min): 31.3
- Heart: Blood Ratio ([2]; rat, 30 min): 26.8
- radioactivity in blood ([2]; rat, 30 min): 0.03 % dose/g
- radioactivity in brain ([2]; rat, 30 min): 0.94 % dose/g
- radioactivity in heart ([2]; rat, 30 min): 0.74 % dose/g
- radioactivity in kidney ([2]; rat, 30 min): 2.23 % dose/g
- radioactivity in liver ([2]; rat, 30 min): 2.28 % dose/g
- radioactivity in lung ([2]; rat, 30 min): 4.80 % dose/g
- radioactivity in muscle ([2]; rat, 30 min): 0.19 % dose/g
- radioactivity in spleen ([2]; rat, 30 min): 1.09 % dose/g
- Brain: Blood Ratio ([2]; rat, 60 min): 55.5
- Heart: Blood Ratio ([2]; rat, 60 min): 40.3
- radioactivity in blood ([2]; rat, 60 min): 0.02 % dose/g
- radioactivity in brain ([2]; rat, 60 min): 0.98 % dose/g
- radioactivity in heart ([2]; rat, 60 min): 0.72 % dose/g
- radioactivity in kidney ([2]; rat, 60 min): 1.85 % dose/g
- radioactivity in liver ([2]; rat, 60 min): 2.0 % dose/g
- radioactivity in lung ([2]; rat, 60 min): 3.33 % dose/g
- radioactivity in muscle ([2]; rat, 60 min): 0.18 % dose/g
- radioactivity in spleen ([2]; rat, 60 min): 1.40 % dose/g
- Brain: Blood Ratio ([2]; rat, 180 min): 69.7
- Heart: Blood Ratio ([2]; rat, 180 min): 42.5
- radioactivity in blood ([2]; rat, 180 min): 0.01 % dose/g
- radioactivity in brain ([2]; rat, 180 min): 0.94 % dose/g
- radioactivity in heart ([2]; rat, 180 min): 0.57 % dose/g
- radioactivity in kidney ([2]; rat, 180 min): 1.63 % dose/g
- radioactivity in liver ([2]; rat, 180 min): 2.43 % dose/g
- radioactivity in lung ([2]; rat, 180 min): 2.52 % dose/g
- radioactivity in muscle ([2]; rat, 180 min): 0.16 % dose/g
- radioactivity in spleen ([2]; rat, 180 min): 1.21 % dose/g
- level of radioactivity in the blood ([2]; rat): low
- brain retention (in words) [2]: comparable retention

SMILES: OC1Cc2ccccc2CC1N1CCC(c2ccccc2)CC1 (stereo not drawn) [Compound 1]
- vesamicol-like inhibitory activity (in words) ([3]; Rogers et al 1989): potent
- eudesmic ratio (vesamicol receptor [4]): not unity

SMILES: Nc1cccc2c1CC(N1CCC(c3ccccc3)CC1)C(O)C2 (stereo not drawn) [Compound 2]
- vesamicol-like inhibitory activity (in words) ([3]; Rogers et al 1989): potent
- ligand potency at the vesamicol receptor (in words) (vesamicol receptor [4]; literature): potent ligands

SMILES: OCCN1CCC(c2ccccc2)CC1 [Compound 4]
- vesamicol-like inhibitory activity (in words) ([3]; Rogers et al 1989): weak inhibitors; also recorded: very weak inhibitor
- potency relative to vesamicol ([3]; Rogers et al 1989): two hundred and fifty times less potent

SMILES: CC(O)CN1CCC(c2ccccc2)CC1 (stereo not drawn) [Compound 14]
- vesamicol-like inhibitory activity (in words) ([3]; Rogers et al 1989): weak inhibitors

SMILES: CC(O)CN1CCC(c2ccccc2)CC1 (stereo not drawn) [Compound 14b]
- increase in activity relative to ethanol analog 4 ([3]; addition of an α-methyl group): thirty-fold increase in activity
